The source of these data is patent US9034303B2, “Neuroprotective and neuro-restorative iron chelators and monoamine oxidase inhibitors and uses thereof” (priority 2010, dated 2015).

For series [1] the following is noted: prior publications; cited from earlier work.
The subject of series [2] is 6-OHDA-induced lesions of nigrostrial dopamine neurons. Conditions: prior publications; cited from earlier work.
The nature of series [3]: Stability in aqueous solution (PBS or saline) followed by HPLC. In kind it is physicochemical. Particulars: for Amount of compound remaining (%): 25° C., 0.5 mM. On the procedure:
Using high pressure liquid chromatography (HPLC), the stability of each of the tested compounds was determined by following its respective chemical character over time in either phosphate buffered saline (PBS) and/or 0.85% saline solution (sodium chloride). In each case, 0.5 mM of the tested compound in PBS or saline solution was incubated at 25° C. or at 37° C. for 20 hours or, in some cases, up to two days (48 hours).

In series [4] the target is rat brain MAO-A (Rattus norvegicus (Rat), UniProt P21396). The experiment in a line: In vitro inhibition of rat brain MAO-A (14C-5-HT substrate). Particulars: for pIC50: estimated from the data in FIG. 1, rat brain MAO-A, read-out: MAO-A IC50. In kind it is biochemical. On the procedure: Rats are decapitated and the brains quickly taken into a weighted ice-cold sucrose buffer (0.32 M) and their weights determined. All subsequent procedures are performed at 0° C. The brains are homogenized in 0.32 M sucrose (one part tissue to 20 parts sucrose) in a Teflon glass homogenizer followed by the addition of sucrose buffer to a final concentration of 10% homogenate. The homogenates are centrifuged at 600 g for 15 min. The supernatant fractions are taken out and centrifuged at 4500 g for 30 min, the pellet diluted in 0.32 M sucrose buffer and kept frozen for later assaying of MAO. Protein concentration is determined with Bradford reagent at λ=595 nm, using BSA as a standard.
(§1) MAO-A and MAO-B activities are determined in rat brain homogenate in vitro following incubation with varying concentrations of the test compounds.
The activity of MAO-A and MAO-B was determined by the adapted method of Tipton & Youdim (Tipton K F, O'Sullivan J, Youdim M B, 1983, Encyclopedia of Neuroscience, 2004, G. Adelman and B. H. Smith, Elsevier). The test compound was added to a suitable dilution of the enzyme preparation (70 μg protein for MAO-B and 150 μg MAO-A assay) in 0.1 M phosphate buffer (pH 7.4). The mixture was incubated together with […], a specific inhibitor of MAO-B (for determination of MAO-A) or 0.05 M clorgylin, a specific inhibitor of MAO-A (for determination of MAO-B). Incubation was carried for 0.5 or 1 h at 37° C. before addition of ^14C-5-hydroxytryptamine binoxalate (5-HT) (100 or 400 μM) for determination of MAO-A, or ^14C-phenylethylamine (^14C-PEA) 100 or 400 μM for determination of MAO-B, and incubation continued for 30 min or 20 min, respectively. The reaction was stopped with 2 M ice-cold citric acid, and the metabolites were extracted and determined by liquid-scintillation counting in cpm units. […]
(§2) MAO-A and MAO-B activity was measured using radioactive substrates. The substrate for MAO-A was 5 HT and for MAO-B was PEA. When measuring the activity of MAO-A, the MAO-B activity was inhibited with deprenyl and when measuring the activity of MAO-B the activity of MAO-A was inhibited with clorgylin. Blank samples were produced using TCP to inhibit both of the enzymes. The metabolites were extracted to toluene and read in a β-counter. The results are expressed in relative activity and normalized to the amount of protein in the tissue.

Series [5] has as its target rat brain MAO-B (Rattus norvegicus (Rat), UniProt P19643). The experiment in a line: In vitro inhibition of rat brain MAO-B (14C-PEA substrate). In kind it is biochemical. Particulars: for pIC50: estimated from FIG. 2, rat brain MAO-B, read-out: MAO-B IC50. On the procedure:
Rats are decapitated and the brains quickly taken into a weighted ice-cold sucrose buffer (0.32 M) and their weights determined. All subsequent procedures are performed at 0° C. The brains are homogenized in 0.32 M sucrose (one part tissue to 20 parts sucrose) in a Teflon glass homogenizer followed by the addition of sucrose buffer to a final concentration of 10% homogenate. The homogenates are centrifuged at 600 g for 15 min. The supernatant fractions are taken out and centrifuged at 4500 g for 30 min, the pellet diluted in 0.32 M sucrose buffer and kept frozen for later assaying of MAO.
as §1
The in vitro inhibitory activity of the compounds is tested against rat brain MAO-B. The test compounds are added to buffer containing 10^−7 M clorgylin and are incubated with the tissue homogenate for 30 or 60 min at 37° C. before addition of ^14C-PEA.
The test compound was added to a suitable dilution of the enzyme preparation (70 μg protein for MAO-B and 150 μg MAO-A assay) in 0.1 M phosphate buffer (pH 7.4). The mixture was incubated together with […], a specific inhibitor of MAO-B (for determination of MAO-A) or 0.05 M clorgylin, a specific inhibitor of MAO-A (for determination of MAO-B). Incubation was carried for 0.5 or 1 h at 37° C. before addition of ^14C-5-hydroxytryptamine binoxalate (5-HT) (100 or 400 μM) for determination of MAO-A, or ^14C-phenylethylamine (^14C-PEA) 100 or 400 μM for determination of MAO-B, and incubation continued for 30 min or 20 min, respectively. The reaction was stopped with 2 M ice-cold citric acid, and the metabolites were extracted and determined by liquid-scintillation counting in cpm units.
The reaction was stopped with 2 M ice-cold citric acid, and the metabolites were extracted with ethyl acetate and levels of radioactivity were determined by liquid-scintillation counting in CPM units. All assays were performed at least in duplicate and outcome was expressed as a mean±SEM. Data were analyzed by a Student's t test. Variations were considered statistically significant at a p value of 0.05.
as §2

Series [6] relates to HepG2 cells. Put plainly: Cytotoxicity in presence and absence of exogenous iron, HepG2. It is filed as cell-based, human. Particulars: iron alone, 20 μM. On the procedure: (§3) The potential of compound 3 to be toxic in the presence of free iron was also tested. The iron complexation method was based on the method of Leanderson and Tagesson (Carcinogenesis, 17, 545-550, 1996) with some modifications. Iron (III) was prepared from ferric ammonium citrate (Sigma, F5879) at 80 mM in sterile distilled water. Compound 3 was prepared at a 200 mM concentration in DMSO. Before each experiment, the freshly prepared iron (III) solution was diluted to 0.4 mM in PBS II (PBS containing 0.90 mM Ca^2+ and 0.49 mM Mg^2+). Compound 3 stock solutions were diluted to 2, 0.2, and 0.02 mM with PBS II. Equal volumes of the 0.4 mM iron (III) solution and compound 3 solutions were added together to prepare iron/test article complex solutions containing 1, 0.1, and 0.01 mM compound 3 and 0.2 mM iron (III). The compound 3 DMSO stock solution was diluted in PBS II at 1, 0.1, or 0.01 mM and used as compound 3 control without iron. An equal volume of the 0.4 mM iron (III) solution was diluted in PBS II to prepare a control containing only iron.
(§4) The medium was removed from the plated cells (both cell lines) and replaced with fresh medium (90 μL). Iron/compound 3 complex or compound 3 in PBS II without iron was added to cells in triplicate (10 μL) to final compound 3 concentrations of 100, 10, and 1 μM and an iron (III) concentration of 20 μM. Wells containing no cells were used as the background control. PBS II was run as vehicle control. Iron only was run at a final concentration of 20 μM.
(§5) Cell viability was determined as described above and cytotoxicity was compared between treatments with and without iron complexation.

In series [7] the test system is SHSY-5Y cells. Put plainly: Cytotoxicity in presence and absence of exogenous iron, SH-SY5Y. It is filed as cell-based, human. Conditions: iron alone, 20 μM. The method, then: as §3, §4, §5
Series [8] is described as follows: in vitro. Conditions: human. The method, then:
The cytotoxicity of compound 3 was assessed in vitro using two standard cell lines, HepG2, derived from a human hepatocellular carcinoma, and SH-SY5Y, derived from a human neuroblastoma, both in the presence and absence of excess iron.
HepG2 cells were maintained at ˜5% CO2, 37° C., and 95% relative humidity in minimal essential media (MEM) supplemented with 10% fetal bovine serum plus 0.1 mM non-essential amino acids, 2 mM L-glutamine, and penicillin/streptomycin. SH-SY5Y cells were maintained at ˜5% CO2, 37° C., and 95% relative humidity in a mixture of minimal essential media (MEM) and F12 K media (1:1, v:v) supplemented with 10% fetal bovine serum plus 0.1 mM non-essential amino acids, 2 mM L-glutamine, and penicillin/streptomycin. The cells were subcultured every two to three days and plated in tissue culture treated opaque white 96-well plates at a density of 1×10^4 cells/well and incubated at ˜5% CO2, 37° C., and 95% relative humidity overnight prior to initiation of the assay.
A series of DMSO stocks of the test article at 100× of the final concentration were diluted 1:100 with fresh culture media (final DMSO concentration was 1%). The media from the plated cells was removed and replaced with 100 μL of media containing test article or tamoxifen with final concentrations ranging between 0.01 to 1000 μM in triplicate. Wells containing no cells were used as background controls. Tamoxifen was used as a known positive control and DMSO alone was used as a vehicle control. The cells were incubated for four hours at ˜5% CO2, 37° C., and 95% relative humidity.
Cell viability was determined using a commercially available kit to determine ATP levels by luminescence. Briefly, the buffer and lyophilized substrate from the kit were equilibrated to room temperature. The buffer was used to reconstitute the substrate just prior to addition to the wells of the cell plate (100 μL per well). The plate was placed into the Tecan Infinite M200 plate reader, agitated for 10 minutes followed by a 10 minute wait period, then read using an integration time of 0.5 seconds with no attenuation.
The mean luminescence from the test article treated cells was compared to that treated by DMSO only.

Where [9] appears, read: concentration 0.01 mM, rat brain extracts.
Where [10] appears, read: concentration 0.1 mM, rat brain extracts.

pIC50: −log10 of the molar value. Where two headings read alike, the source gives them in different places.

Chain of rat brain MAO-A (P21396 whole entry): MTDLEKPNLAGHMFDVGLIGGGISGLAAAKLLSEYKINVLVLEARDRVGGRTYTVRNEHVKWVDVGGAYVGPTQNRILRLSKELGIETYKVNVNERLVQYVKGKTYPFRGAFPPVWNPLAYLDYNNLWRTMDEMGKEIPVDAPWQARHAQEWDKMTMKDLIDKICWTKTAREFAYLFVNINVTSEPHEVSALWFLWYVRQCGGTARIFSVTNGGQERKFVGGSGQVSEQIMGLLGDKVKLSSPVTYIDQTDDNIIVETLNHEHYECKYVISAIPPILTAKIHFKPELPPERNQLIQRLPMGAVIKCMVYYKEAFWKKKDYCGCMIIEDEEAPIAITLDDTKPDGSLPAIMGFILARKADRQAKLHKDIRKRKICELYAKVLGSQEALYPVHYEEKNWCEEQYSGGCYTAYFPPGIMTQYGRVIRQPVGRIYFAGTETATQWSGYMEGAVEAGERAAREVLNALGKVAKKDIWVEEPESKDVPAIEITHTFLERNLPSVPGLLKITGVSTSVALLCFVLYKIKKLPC
Chain of rat brain MAO-B (P19643 whole entry): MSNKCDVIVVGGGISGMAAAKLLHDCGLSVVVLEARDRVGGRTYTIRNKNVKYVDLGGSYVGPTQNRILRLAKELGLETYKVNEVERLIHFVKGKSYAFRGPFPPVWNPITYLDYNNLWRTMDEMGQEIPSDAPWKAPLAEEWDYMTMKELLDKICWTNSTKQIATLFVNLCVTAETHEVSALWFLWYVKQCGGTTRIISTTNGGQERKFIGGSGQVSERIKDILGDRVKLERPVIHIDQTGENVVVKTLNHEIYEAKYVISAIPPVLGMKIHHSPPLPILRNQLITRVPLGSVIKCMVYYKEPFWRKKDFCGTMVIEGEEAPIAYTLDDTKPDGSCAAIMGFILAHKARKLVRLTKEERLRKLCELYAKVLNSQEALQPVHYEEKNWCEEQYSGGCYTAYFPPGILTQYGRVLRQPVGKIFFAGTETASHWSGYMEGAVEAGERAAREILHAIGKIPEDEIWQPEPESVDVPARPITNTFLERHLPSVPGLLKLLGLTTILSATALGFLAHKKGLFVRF

Regarding `OCCN1CCN(Cc2ccc(O)c3ncccc23)CC1` [5-[4-(2-hydroxyethyl)piperazin-1-ylmethyl]-8-hydroxyquinoline], the “Crossing of the BBB” value in series [1] is given as “able to cross the BBB”. In addition, the “Activity against 6-OHDA in an animal model of Parkinson's disease” value in series [2] was “active against 6-hydroxydopamine (6-OHDA)”.
Usually pIC50 stands for the IC50 on a negative log10 scale, so that one unit is a factor of ten. For the compound `C#CCN(C)CCCc1ccc(O)c2ncccc12` [Compound 4, 5-[3-(methyl-2-propyn-1-ylamino)propyl]-8-quinolinol], the “Stability in aqueous solution (in words)” value in series [3] (PBS and/or saline solution) is recorded as “highly stable chemically”. For the same compound, the “Amount of compound remaining (%)” value in series [3] (PBS, 0.5 hours) is on record as 100%; in series [3] (PBS, 2 hours) it was 100%; in series [3] (PBS, 20 hours), 100%; in series [3] (PBS, 48 hours), 100%; in series [3] (saline, 0.5 hours) it was 100%; in series [3] (saline, 2 hours), 100%. The “Amount of compound remaining (%)” value in series [3] (saline, 20 hours) is 100%; in series [3] (saline, 48 hours) it was 100%. Besides, the values for the pIC50 in series [4] (listed as compound 4), in series [4] and in series [5] were roughly 6.70, 6.70 and 7.00, respectively. Further, the “Inhibition of rat brain MAO-A in vitro (in words)” value in series [4] is reported as “potent inhibitors”. The “Inhibition of rat brain MAO-B in vitro (in words)” value in series [5] is “potent inhibitors”.
With `CC(=O)N(O)CCCCCNC(=O)CCC(=O)N(O)CCCCCNC(=O)CCC(=O)N(O)CCCCCN` [Desferal], in series [1], the “Crossing of the BBB” value was “does not cross the BBB”. Also, the “Activity against 6-OHDA in an animal model of Parkinson's disease” value in series [2] is on record as “protected the rats against 6-OHDA-induced lesions”.
With `[Fe+3]` [Iron], the “HepG2 cell death (%)” value in series [6] worked out at 1.6%. Further, the “SHSY-5Y cell death (%)” value in series [7] is listed as −1.0%.
A word on the inhibition: it is the change of the read-out against control, counted positive when it falls. As for `C#CCN(C)Cc1ccc(OC)c2ncccc12` [O-Methyl-M30], the results for the inhibition at 10 µM in series [4] (setting [9]) and in series [5] (setting [9]) were 98.5% and 87.8%, respectively. The inhibition at 100 µM worked out at 99.7% in series [4] (setting [10]) and 97.3% in series [5] (setting [10]). Also, the figures for the pIC50 in series [4] and in series [5] were 6.52 to 6.60 and 7.40 to 7.70, respectively. Moreover, the “Inhibition of rat brain MAO-A in vitro (in words)” value in series [4] was “potent inhibitors”; in series [4] (listed as O-methyl M30), “inhibits both brain MAO-A and MAO-B at apparently similar levels”. Further, the “Inhibition of rat brain MAO-B in vitro (in words)” value in series [5] is “potent inhibitors”; in series [5] (listed as O-methyl M30), “inhibits both brain MAO-A and MAO-B at apparently similar levels”.
With `CC/C(=C(\c1ccccc1)c1ccc(OCCN(C)C)cc1)c1ccccc1` [tamoxifen, reference compound], the CC50 at 4 h in series [8] and in series [8] (LC50 (μM) SHSY-5Y) was roughly 50 µM each time.
